{"source": "patent US20080268533A1", "about": "“Methods and Compositions Utilizing Myc and Gsk3Beta to Manipulate the Pluripotency of Embryonic Stem Cells” (University of Georgia Research Foundation, Inc., priority 2004, published 2008)", "key": {"vector alone cell lines": {"system": "vector alone cell lines", "test": "Self-renewal of vector alone ES cell lines with 4OHT", "format": "cell-based, mouse", "conditions": "absence of LIF", "source_text": "Furthermore, authentic c-myc could maintain self-renewal in a similar manner to mycER fusions when expressed constitutively, independently of 4OHT (data not shown)."}, "mycER ES cells": {"system": "mycER ES cells", "test": "AP activity of mycER ES cells with 4OHT", "format": "cell-based, mouse", "procedure": "In the presence of 4OHT (mycER on), ES cells retained a uniform dome-shaped colony morphology (FIG. 1B), similar to that of LIF maintained cells (data not shown). In contrast, withdrawal of 4OHT promoted a distinct flattening of colonies with a less uniform appearance (FIG. 1C) that correlated with ES cells undergoing differentiation in the absence of LIF (data not shown). The ability of c-myc to promote ES cell self-renewal was confirmed in a LIF titration assay where mycER ES cells were grown in the presence or absence of 4OHT for 6 days in media containing LIF over a range of 0-1×10^3 units per ml and then assayed for AP activity. […] MycER cells were then grown in the presence or absence of 4OHT in the absence of LIF for up to 15 days and assayed for AP activity. […] Including low levels of LIF (7.5 units/ml), that by itself had only a small effect on maintaining AP levels over 15 days, appeared to further delay the loss of AP activity in mycER cells grown with 4OHT."}, "myc^T58AER cells": {"system": "myc^T58AER cells", "conditions": "4OHT (−LIF) versus LIF maintained cells, 14-day period", "description": "For long-term maintenance, mycER and myc^T58AER mouse ES cells were grown in ES complete media supplemented with 4-hydroxytomoxifen (4OHT) (100 nM or 2-10 nM, respectively) and re-fed every second day. For differentiation of ES cells as embryoid bodies (EB), cells were trypsinized and replated on bacteriological dishes at 1.6×10^5 cells/cm^2 and grown in ESC media (−LIF) plus or minus 4OHT to allow for EB formation. Cells were re-fed every second day and expanded after 4 days of culture. mycER cells were passaged by limited trypsinization, avoiding generation of single cell suspensions. AP activity was assayed with Alkaline Phosphatase Substrate Kit I (Vector Laboratories) according to the manufacturers' instructions. LIF titration assays were performed over a range of 0 to 1×10^3 units ESGRO per ml in the presence or absence of 4OHT by plating cells in 24 well plates."}, "[1]": {"system": "hES BG01 cell lines transfected with c-myc^T58AER", "format": "cell-based", "procedure": "To address this question in hESCs, clonal hES BG01 cell lines transfected with a human c-myc^T58AER gene fusion were generated, identical to that used in the previous mESC studies.\nTo establish a role for c-myc in HESC self-renewal, c-myc activity was enforced by the addition of 4OHT. This experiment was performed to determine whether c-myc could maintain normal HESC growth and morphology on Matrigel for a period of approximately 15 days (3 passages) in the absence of MEF-CM and bFGF, conditions where spontaneous differentiation would be anticipated. Uninduced (−40HT) cells overtly differentiated after approximately 5-6 days in a manner closely resembling untransfected hESCs when grown in the absence of MEF-CM and bFGF on Matrigel, as judged by changes in cell/colony morphology, increased cell spreading, and a reduction in cell packing density (FIGS. 11B and C and data not shown). The cell lines were also analyzed by immunoblot analysis, evaluating levels of c-myc^T58AER, c-myc, and cdk2 (FIG. 11A).\nAlkaline phosphatase (AP) activity was used as a read-out to assess whether c-myc maintained hESCs were still pluripotent. 67% of colonies grown with 4OHT were AP positive in contrast to −4OHT cells where only 4% were positive after a 15 day period (FIG. 11D and data not shown). As in mouse ES cells, elevated c-myc activity caused significant cell death (data not shown)."}, "myc^Δ40-178ER cells": {"system": "myc^Δ40-178ER cells", "test": "AP activity of dominant negative myc^Δ40-178ER cells with 4OHT", "format": "cell-based, mouse", "conditions": "+LIF, 4OHT (25 nM), 6-day period, 92% at start", "source_text": "While ES cell colonies with a typical domed-shape morphology could be maintained in the presence of LIF and in the absence of 4OHT over extended periods (>30 days), upon addition of 4OHT myc^Δ40-178ER cells changed morphology within several days, similar to that seen in spontaneously differentiating cells (data not shown). This coincided with down-regulation of specific transcripts associated with pluripotency such as Nanog and Oct4 together with the upregulation of early mesoderm (brachyury) and neuroectoderm (Sox1) transcripts (FIG. 10A). These trends were confirmed by AP activity assays in which the percentage of AP positive colonies declined from 92% to 45% over a 6-day period in the presence of 4OHT (FIG. 10B). […] This is consistent with the results showing that c-myc has a role in self-renewal and maintenance of pluripotency."}}, "data": [{"smiles": "CC/C(=C(\\c1ccc(O)cc1)c1ccc(OCCN(C)C)cc1)c1ccccc1", "note": "[4OHT, 4-hydroxytomoxifen]", "values": [{"measurement": "self-renewal", "setting": "vector alone cell lines", "result": "did not promote self-renewal"}, {"measurement": "AP activity (positive)", "setting": "mycER ES cells; mycER cells grown in 4OHT, 6 days, entire LIF titration range 0-1×10^3 units per ml", "result": "> 90", "unit": "%"}, {"measurement": "AP activity", "setting": "mycER ES cells; mycER cells, 14 days, −LIF, in the presence of 4OHT", "result": "significantly reduced"}, {"measurement": "AP activity", "setting": "myc^T58AER cells", "result": "comparable between LIF maintained cells and those grown in the presence of 4OHT"}, {"measurement": "highest concentration of drug that did not promote c-myc-dependent cell death (optimal)", "setting": "[1]; 4OHT titration, c-myc^T58AER BG01 cell line", "result": "1 to 5", "unit": "nM"}, {"measurement": "colonies AP positive", "setting": "[1]; c-myc^T58AER hESCs grown with 4OHT, Matrigel, no MEF-CM and bFGF, 15 day period", "result": 67, "unit": "%"}, {"measurement": "percentage of AP positive colonies", "setting": "myc^Δ40-178ER cells", "result": 45, "unit": "%"}]}]}
